These results are taken from patent US20230091225A1, “Bifunctional chimeric heterocyclic compounds for targeted degradation of androgen receptors and use thereof” (HINOVA PHARMACEUTICALS INC., priority 2019, published 2023).

The target in one assay is T1, androgen receptor (AR) (Homo sapiens, UniProt P10275).
T1 sequence (P10275 1-920): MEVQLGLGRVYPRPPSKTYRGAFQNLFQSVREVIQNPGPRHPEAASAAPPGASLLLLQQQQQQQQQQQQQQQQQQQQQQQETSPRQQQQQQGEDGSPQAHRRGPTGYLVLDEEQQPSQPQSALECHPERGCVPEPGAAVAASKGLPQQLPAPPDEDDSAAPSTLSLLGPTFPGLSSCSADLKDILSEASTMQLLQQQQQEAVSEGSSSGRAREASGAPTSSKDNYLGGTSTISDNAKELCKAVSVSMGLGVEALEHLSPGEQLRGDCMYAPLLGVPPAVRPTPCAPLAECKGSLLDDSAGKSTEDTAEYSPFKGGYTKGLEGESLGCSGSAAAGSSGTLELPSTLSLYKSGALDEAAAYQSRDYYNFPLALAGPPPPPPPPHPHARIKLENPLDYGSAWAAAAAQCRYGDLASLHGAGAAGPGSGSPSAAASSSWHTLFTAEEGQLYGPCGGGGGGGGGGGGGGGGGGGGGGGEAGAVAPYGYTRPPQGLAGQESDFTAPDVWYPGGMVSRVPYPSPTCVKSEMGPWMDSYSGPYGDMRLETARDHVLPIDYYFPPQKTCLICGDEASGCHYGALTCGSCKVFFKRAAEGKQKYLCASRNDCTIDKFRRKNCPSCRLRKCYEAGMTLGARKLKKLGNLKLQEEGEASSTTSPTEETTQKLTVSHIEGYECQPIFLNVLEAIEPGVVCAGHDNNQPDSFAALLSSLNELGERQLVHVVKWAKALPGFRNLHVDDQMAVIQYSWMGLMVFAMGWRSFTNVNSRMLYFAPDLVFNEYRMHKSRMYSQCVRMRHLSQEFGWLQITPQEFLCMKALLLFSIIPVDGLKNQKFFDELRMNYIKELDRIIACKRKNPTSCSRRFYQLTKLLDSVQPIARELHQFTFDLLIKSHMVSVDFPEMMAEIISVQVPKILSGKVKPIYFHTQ
The assay is described as follows: Degradation of androgen receptor (AR) protein in VCaP cells by ELISA. It counts as cell-based. The conditions noted are these: for inhibition at 0.1 µM: 16 h, read-out: % degradation. For orientation: In an ELISA, binding on a coated surface is turned into a signal by an enzyme label.

The test system of the next assay is LNCaP/AR cells. The experiment in a line: Inhibition of proliferation of LNCaP/AR prostate cancer cells (CCK-8). The assay is classed as cell-based.
The mark [1] stands for this setting: percentage of degraded AR at 100 nM, VCaP cells, ELISA.
Setting [2] is: 144 h, proliferation of LNCap/AR cells, 6 days, CCK-8, read-out: IC50.

The structures appear in SMILES notation. Like-named read-outs stand apart in the source and are kept apart here.

In the case of `Cc1ncsc1-c1ccc([C@H](C)NC(=O)[C@@H]2C[C@@H](O)CN2C(=O)[C@@H](NC(=O)COCC(C)OCC#Cc2ccc3c(c2)CN([C@H]2C(C)(C)[C@H](Oc4ccc(C#N)c(Cl)c4)C2(C)C)C3=O)C(C)(C)C)cc1` (stereo partly shown) [Compound 15], the inhibition at 0.1 µM on androgen receptor (AR) (setting [1]) lay in the range of 25 to 49%. In addition, the half-inhibitory concentration (IC50) with LNCaP/AR cells (setting [2]) was below 100 nM.
On to `CC(=O)O[C@@H]1C[C@@H](C(=O)N[C@@H](C)c2ccc(-c3scnc3C)cc2)N(C(=O)[C@@H](NC(=O)CN2CCC(CN3CCN(c4ccc(C(=O)NC5C[C@@]6(C)O[C@]5(C)[C@@H]5C(=O)N(c7ccc(C#N)c(Cl)c7)C(=O)[C@@H]56)cn4)CC3)CC2)C(C)(C)C)C1` (stereo partly drawn) [Compound 17, (3R,5S)-1-((2S)-2-(2-(4-((4-(5-(((3aR,4R,7R,7aS)-2-(3-chloro-4-benzonitrile)-4,7-dimethyl-1,3-dioxooctahydro-1H-4,7-epoxyisoindolin-5-yl)carbamoyl) (pyridin-2-yl)piperazin-1-yl)methyl)piperidin-1-yl)acetylamino)-3,3-dimethylbutyryl)-5-(((S)-1-(4-(4-methylthiazol-5-yl)phenyl)ethyl)carbamoyl)pyrrolidin-3-yl acetate], for which the inhibition at 0.1 µM at androgen receptor (AR) (VCaP) lay in the range of 50 to 79%. The same compound displayed an IC50 in the assay on LNCaP/AR cells (LNCaP/AR, 144 h) below 100 nM.
For `Cc1ncsc1-c1ccc([C@H](C)NC(=O)[C@@H]2C[C@@H](O)CN2C(=O)[C@@H](NC(=O)CN2CCC(CN3CCN(c4ccc(C(=O)NC5CC6(C)OC5(C)[C@@H]5C(=O)N(c7ccc(C#N)c(Cl)c7)C(=O)[C@@H]56)cn4)CC3)CC2)C(C)(C)C)cc1` (stereo partly drawn) [Compound 18, N-((3aR,4R,7R,7aS)-2-(3-chloro-4-benzonitrile)-4,7-dimethyl-1,3dioxooctahydro-1H-4,7-epoxyisoindolin-5-yl)-6-(4-((1-(2-(((S)-1-((2S,4R)-4-hydroxy-2-(((S)-1-(4-(4-methylthiazol-5-yl)phenyl)ethyl)carbamoyl)pyrrolidin-1-yl)-3,3-dimethyl-1-oxobutan-2-yl)amino)-2-oxoethyl)piperidine-4-yl)methyl)piperazin-1-yl)nicotinamide] the same measures were above 80% and below 100 nM.
For `CC(=O)O[C@@H]1C[C@H](C(=O)N[C@H](C)c2ccc(-c3scnc3C)cc2)N(C(=O)[C@H](NC(=O)COCCCCCNc2ccc(C(=O)NC3C[C@]4(C)O[C@@]3(C)[C@@H]3C(=O)N(c5ccc(C#N)c(Cl)c5)C(=O)[C@@H]34)c(F)c2)C(C)(C)C)C1` (stereo partly drawn) [Compound 19, (3S,5R)-1-((2R)-2-(2-((5-((4-(((3aS,4S,7S,7aR)-2-(3-chloro-4-benzonitrile)4,7-dimethyl-1,3-dioxooctahydro-1H-4,7-epoxyisoindolin-5-yl)carbamoyl)-3-fluorophenyl)amino)pentyl)oxy)acetylamino)-3,3-dimethylbutyryl)-5-(((R)-1-(4-(4-methylthiazol-5-yl)phenyl)ethyl)carbamoyl)pyrrolidin-3-yl acetate], in that order: below 25% and below 100 nM.
Turning to `Cc1ncsc1-c1ccc([C@@H](C)NC(=O)[C@H]2C[C@@H](O)CN2C(=O)[C@H](NC(=O)COCCCCCNc2ccc(C(=O)NC3C[C@]4(C)O[C@@]3(C)[C@@H]3C(=O)N(c5ccc(C#N)c(Cl)c5)C(=O)[C@@H]34)c(F)c2)C(C)(C)C)cc1` (stereo partly drawn) [Compound 20, (2R,4S)-1-((2R)-2-(2-((5-((4-(((3aS,4S,7S,7aR)-2-(3-chloro-4-benzonitrile)-4,7-dimethyl-1,3-dioxooctahydro-1H-4,7-epoxyisoindolin-5-yl)carbamoyl)-3-fluorophenyl)amino)pentyl)oxy)acetylamino)-3,3-dimethylbutyryl)-4-hydroxy-N-((R)-1-(4-(4-methylthiazol-5-yl)phenyl)ethyl)pyrrolidine-2-carboxamide], on androgen receptor (AR) (VCaP), the inhibition at 0.1 µM was 25 to 49%. This compound also displayed an IC50 with LNCaP/AR cells (LNCaP/AR, 144 h) below 100 nM.
`[2H]C([2H])([2H])N(C(=O)c1ccc(C#CCCCOCC(=O)N[C@H](C(=O)N2C[C@H](O)C[C@H]2C(=O)N[C@@H](C)c2ccc(-c3scnc3C)cc2)C(C)(C)C)cc1)[C@H]1C(C)(C)[C@H](Oc2ccc(C#N)c(Cl)c2)C1(C)C` [Compound 22]: the inhibition at 0.1 µM at androgen receptor (AR) (setting [1]) was 25 to 49%. In the assay on LNCaP/AR cells (setting [2]), the IC50 was below 100 nM.
Turning to `[2H]C([2H])([2H])N(C(=O)c1ccc(C#CCCCCOCC(=O)N[C@H](C(=O)N2C[C@H](O)C[C@H]2C(=O)N[C@@H](C)c2ccc(-c3scnc3C)cc2)C(C)(C)C)cc1)[C@H]1C(C)(C)[C@H](Oc2ccc(C#N)c(Cl)c2)C1(C)C` [Compound 23], on androgen receptor (AR) (setting [1]), the inhibition at 0.1 µM lay within 25 to 49%. Moreover, in the assay on LNCaP/AR cells (setting [2]), the IC50 is below 100 nM.
Consider `[2H]C([2H])([2H])N(C(=O)c1ccc(C#CCCCCCOCC(=O)N[C@H](C(=O)N2C[C@H](O)C[C@H]2C(=O)N[C@@H](C)c2ccc(-c3scnc3C)cc2)C(C)(C)C)cc1)[C@H]1C(C)(C)[C@H](Oc2ccc(C#N)c(Cl)c2)C1(C)C` [Compound 24], for which, at androgen receptor (AR) (setting [1]), the inhibition at 0.1 µM lay in the range of 50 to 79%. The IC50 in the assay on LNCaP/AR cells (setting [2]) is below 100 nM.
For the compound `[2H]C([2H])([2H])N(C(=O)c1ccc(C#CCCOCC(=O)N[C@H](C(=O)N2C[C@H](O)C[C@H]2C(=O)N[C@@H](C)c2ccc(-c3scnc3C)cc2)C(C)(C)C)cc1)[C@H]1C(C)(C)[C@H](Oc2ccc(C#N)c(Cl)c2)C1(C)C` [Compound 26], the inhibition at 0.1 µM on androgen receptor (AR) (setting [1]) is below 25%. Moreover, in the assay on LNCaP/AR cells (setting [2]), the IC50 is below 100 nM.
Consider `Cc1ncsc1-c1ccc([C@H](C)NC(=O)[C@@H]2C[C@@H](O)CN2C(=O)[C@@H](NC(=O)COCCC#Cc2ccc3c(c2)CN([C@H]2C(C)(C)[C@H](Oc4ccc(C#N)c(Cl)c4)C2(C)C)C3=O)C(C)(C)C)cc1` [Compound 27], for which the inhibition at 0.1 µM at androgen receptor (AR) (setting [1]) was in the range of 50 to 79%. Also, the half-maximal inhibitory concentration (IC50) in the assay on LNCaP/AR cells (setting [2]) is below 100 nM.
Consider `[2H]C([2H])([2H])N(C(=O)c1ccc(C#CCCCNC(=O)C2(C(=O)N[C@H](C(=O)N3C[C@H](O)C[C@H]3C(=O)N[C@@H](C)c3ccc(-c4scnc4C)cc3)C(C)(C)C)CC2)cc1)[C@H]1C(C)(C)[C@H](Oc2ccc(C#N)c(Cl)c2)C1(C)C` [Compound 28], for which the inhibition at 0.1 µM on androgen receptor (AR) (setting [1]) was in the range of 25 to 49%. For the same compound, the IC50 with LNCaP/AR cells (setting [2]) was below 100 nM.
For `Cc1ncsc1-c1ccc([C@H](C)NC(=O)[C@@H]2C[C@@H](O)CN2C(=O)[C@@H](NC(=O)COCCCN2CCN(c3ccc4c(c3)CN(C3C(C)(C)C(Oc5ccc(C#N)c(Cl)c5)C3(C)C)C4=O)CC2)C(C)(C)C)cc1` (stereo partly shown) [Compound 31], in that order: 50 to 79% and below 100 nM.
For `Cc1ncsc1-c1ccc([C@H](C)NC(=O)[C@@H]2C[C@@H](O)CN2C(=O)[C@@H](NC(=O)COC2CN(CCC#Cc3ccc4c(c3)CN([C@H]3C(C)(C)[C@H](Oc5ccc(C#N)c(Cl)c5)C3(C)C)C4=O)C2)C(C)(C)C)cc1` [Compound 32, (2s,4r)-1-((s)-2-(2-((1-(4-(2-((1r,3r)-3-(3-chloro-4-cyanophenoxy)-2,2,4,4-tetramethylcyclobutyl)-1-oxoheteroin-5-yl)-3-butyne-1-yl)azetidine-3-yl)oxy)acetamido)-3,3-dimethylbutyryl)-4-hydroxy-N-((S)-1-(4-(4-methylthiazol-5-yl)phenyl)ethyl)pyrrolidine-2-carboxamide], the inhibition at 0.1 µM on androgen receptor (AR) (setting [1]) lay in the range of 50 to 79%. For the same compound, the IC50 with LNCaP/AR cells (setting [2]) was below 100 nM.
Take `[2H]C([2H])([2H])N(C(=O)c1ccc(C#CCCCCOCC(=O)N[C@H](C(=O)N2C[C@H](O)C[C@H]2C(=O)N[C@@H](C)c2ccc(-c3scnc3C)cc2)C(C)(C)C)nc1)[C@H]1C(C)(C)[C@H](Oc2ccc(C#N)c(Cl)c2)C1(C)C` [Compound 33]: the inhibition at 0.1 µM at androgen receptor (AR) (setting [1]) was 0%. In addition, in the assay on LNCaP/AR cells (setting [2]), the IC50 lay in the range of 100 to 500 nM.
As to `Cc1ncsc1-c1ccc([C@H](C)NC(=O)[C@H]2C[C@@H](O)CN2C(=O)[C@@H](NC(=O)COCCCCC#Cc2cc3c(cn2)C(=O)N(C2C(C)(C)C(Oc4ccc(C#N)c(Cl)c4)C2(C)C)C3)C(C)(C)C)cc1` (stereo partly shown) [Compound 38], on androgen receptor (AR), the “% degradation” value is reported as “B (key: A: >80%; B: 79%-50%; C: 49%-25%; D: <25%)”. The IC50 in the assay with LNCaP/AR cells (proliferation of LNCap/AR cells, 6 days, CCK-8, read-out: IC50) is below 100 nM.
For the compound `Cc1ncsc1-c1ccc([C@H](C)NC(=O)[C@@H]2C[C@@H](O)CN2C(=O)[C@@H](NC(=O)CCn2cc(C#Cc3ccc4c(c3)CN([C@H]3C(C)(C)[C@H](Oc5ccc(C#N)c(Cl)c5)C3(C)C)C4=O)cn2)C(C)(C)C)cc1` [Compound 42], the inhibition at 0.1 µM on androgen receptor (AR) (setting [1]) was in the range of 50 to 79%. Also, the IC50 in the assay on LNCaP/AR cells (setting [2]) was below 100 nM.
On to `Cc1ncsc1-c1ccc([C@H](C)NC(=O)[C@@H]2C[C@@H](O)CN2C(=O)[C@@H](NC(=O)CN2CC(CC#Cc3ccc4c(c3)CN([C@H]3C(C)(C)[C@H](Oc5ccc(C#N)c(Cl)c5)C3(C)C)C4=O)C2)C(C)(C)C)cc1` [Compound 43], for which the inhibition at 0.1 µM on androgen receptor (AR) (setting [1]) lay in the range of 50 to 79%. Besides, in the assay with LNCaP/AR cells (setting [2]), the IC50 was below 100 nM.

For orientation: IC50 means the point on the concentration scale where inhibition reaches its midpoint.
